{"source": "patent US20220079139A1", "about": "“CYCLOSPORIN ANALOG AND USE THEREOF” (Farsight Medical Technology (Shanghai) Co., Ltd., priority 2019, published 2022)", "key": {"Cyclophilin D": {"biological_target": "Cyclophilin D (Homo sapiens, UniProt P30405)", "sequence (P30405 30-207)": "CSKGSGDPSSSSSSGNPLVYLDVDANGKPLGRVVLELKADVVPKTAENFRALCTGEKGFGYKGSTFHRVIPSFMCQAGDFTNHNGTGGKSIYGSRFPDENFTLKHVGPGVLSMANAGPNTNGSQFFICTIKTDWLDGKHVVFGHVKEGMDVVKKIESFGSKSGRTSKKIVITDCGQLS", "test": "Cyclophilin inhibition binding, competitive ELISA (Cyclophilin D)", "conditions": "human recombinant cyclophilin, read-out: CypD EC50", "procedure": "(§1) The cyclophilin inhibition binding activity of compounds disclosed herein was determined using a competitive ELISA adapted from the methods described by Quesniaux et al. (Eur. J Immunol., 1987, 17:1359-1365). Activated ester of succinyl spacers bound to D-Lys^8-cylosporine A (D-Lys^8-Cs) are coupled to bovine serum albumin (BSA) through D-lysyl residue in position 8. BSA is dissolved in 0.1 M borate buffer, pH 9.0 (4 mg in 1.4 ml). A hundredfold molar excess of D-Lys^8-Cs dissolved in dimethyl formamide (0.6 ml) is added dropwise to the BSA under vigorous stirring. The coupling reaction is performed for 2 to 3 hours at room temperature under mild stirring and the conjugate obtained is extensively dialyzed against phosphate-buffered saline (PBS, pH 7.4).\n(§2) Microtiter Plates are coated with D-Lys^8-Cs-BSA conjugate (2 μg/ml in PBS for 24 hours at 4° C.). Titration Plates are washed with Tween®/PBS and with PBS alone. To block nonspecific binding, 2% BSA/PBS (pH 7.4) is added to the wells and allowed to incubate for 2 hours at 37° C. A five-fold dilution series of the compound to be tested is made in ethanol in a separate microtiter plate. The starting concentration is 0.1 mg/mL for assays with human recombinant cyclophilin. 198 μL of 0.1 μg/mL cyclophilin solution is added to the microtiter plate immediately followed by 2 μL of diluted cyclosporine A (used as a reference compound) or the compound of the invention. The reaction between coated BSA-Cs conjugate, free cyclosporine A and cyclophilin is allowed to equilibrate overnight at 4° C. Cyclophilin is detected with anti-cyclophilin rabbit serum diluted in PBS containing 1% BSA and incubates overnight at 4° C. Titration Plates are washed as described above. Bound rabbit antibodies are then detected by goat anti-rabbit IgG conjugated to alkaline phosphatase and diluted in 1% BSA-PBS and allowed to incubate for 2 hours at 37° C. Titration Plates are washed as described above. […] The results are expressed as an EC50, which is the concentration of the compound of the invention required to achieve 50% inhibition."}, "Cyclophilin A": {"biological_target": "Cyclophilin A (Homo sapiens, UniProt P62937)", "sequence (P62937 whole entry)": "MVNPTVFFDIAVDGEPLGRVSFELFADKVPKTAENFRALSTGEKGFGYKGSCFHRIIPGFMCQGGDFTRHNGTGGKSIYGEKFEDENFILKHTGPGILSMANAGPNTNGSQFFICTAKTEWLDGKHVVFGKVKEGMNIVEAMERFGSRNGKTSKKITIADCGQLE", "test": "Cyclophilin inhibition binding, competitive ELISA (Cyclophilin A)", "conditions": "human recombinant cyclophilin, read-out: CypA EC50", "procedure": "as §1, §2"}}, "note": "pEC50: −log10 of the molar value.", "data": [{"smiles": "C/C=C/C[C@@H](C)[C@@H](O)[C@H]1C(=O)N[C@@H](CC)C(=O)N(C)[C@H](OCCN(C)C(C)C)C(=O)N(C)[C@@H](CC(C)C)C(=O)N[C@@H](C(C)C)C(=O)N(C)[C@@H](CC(C)C)C(=O)N[C@@H](C)C(=O)N[C@H](C)C(=O)N(C)[C@@H](CC(C)C)C(=O)N(C)[C@@H](CC(C)C)C(=O)N(C)[C@@H](C(C)C)C(=O)N1C", "note": "[Entry 2]", "values": [{"measurement": "pEC50", "setting": "Cyclophilin D", "value": 5.45}, {"measurement": "pEC50", "setting": "Cyclophilin A", "value": 6.69}]}, {"smiles": "C/C=C/C[C@@H](C)[C@@H](O)[C@H]1C(=O)N[C@@H](CC)C(=O)N(C)[C@H](OCCCN)C(=O)N(C)[C@@H](CC(C)C)C(=O)N[C@@H](C(C)C)C(=O)N(C)[C@@H](CC(C)C)C(=O)N[C@@H](C)C(=O)N[C@H](C)C(=O)N(C)[C@@H](CC(C)C)C(=O)N(C)[C@@H](CC(C)C)C(=O)N(C)[C@@H](C(C)C)C(=O)N1C", "note": "[Entry 3]", "values": [{"measurement": "pEC50", "setting": "Cyclophilin A", "value": 7.85}]}, {"smiles": "C/C=C/C[C@@H](C)[C@@H](O)[C@H]1C(=O)N[C@@H](CC)C(=O)N(C)[C@H](OCCN2CCC2)C(=O)N(C)[C@@H](CC(C)C)C(=O)N[C@@H](C(C)C)C(=O)N(C)[C@@H](CC(C)C)C(=O)N[C@@H](C)C(=O)N[C@H](C)C(=O)N(C)[C@@H](CC(C)C)C(=O)N(C)[C@@H](CC(C)C)C(=O)N(C)[C@@H](C(C)C)C(=O)N1C", "note": "[Entry 5]", "values": [{"measurement": "pEC50", "setting": "Cyclophilin A", "value": 7.18}]}, {"smiles": "C/C=C/C[C@@H](C)[C@@H](O)[C@H]1C(=O)N[C@@H](CC)C(=O)N(C)[C@H](OCCN2CCCCC2)C(=O)N(C)[C@@H](CC(C)C)C(=O)N[C@@H](C(C)C)C(=O)N(C)[C@@H](CC(C)C)C(=O)N[C@@H](C)C(=O)N[C@H](C)C(=O)N(C)[C@@H](CC(C)C)C(=O)N(C)[C@@H](CC(C)C)C(=O)N(C)[C@@H](C(C)C)C(=O)N1C", "note": "[Entry 6]", "values": [{"measurement": "pEC50", "setting": "Cyclophilin D", "value": 5.60}, {"measurement": "pEC50", "setting": "Cyclophilin A", "value": 6.93}]}, {"smiles": "C/C=C/C[C@@H](C)[C@@H](O)[C@H]1C(=O)N[C@@H](CC)C(=O)N(C)[C@H](OCCN2CCCC2)C(=O)N(C)[C@@H](CC(C)C)C(=O)N[C@@H](C(C)C)C(=O)N(C)[C@@H](CC(C)C)C(=O)N[C@@H](C)C(=O)N[C@H](C)C(=O)N(C)[C@@H](CC(C)C)C(=O)N(C)[C@@H](CC(C)C)C(=O)N(C)[C@@H](C(C)C)C(=O)N1C", "note": "[Entry 7]", "values": [{"measurement": "pEC50", "setting": "Cyclophilin D", "value": 5.92}, {"measurement": "pEC50", "setting": "Cyclophilin A", "value": 7.92}]}]}
